Results on four molecules are retold here after EP4775575A1, “COMPOUND USED AS CDK4 KINASE INHIBITOR AND USE THEREOF” (TYK Medicines, Inc., priority 2023, dated 2025).

For one data set, the target named is CDK4/CycD1 (Homo sapiens, UniProt P11802). The data set can be described thus: Kinase activity assay (MSA, EZ Reader) against CDK4.
The target in another data set is T1, CDK6/CyclinD3 (Homo sapiens, UniProt Q00534).
T1 construct: purchased Carna 04-107
The data set can be described thus: Kinase activity assay (MSA, EZ Reader) against CDK6. The format is biochemical. The following applies: CDK6/CyclinD3 5.00 nM, ATP 350 µM, FL-Peptide34, 10mM MgCl2.

Data set [1] relates to human mantle cell lymphoma cells JEKO-1. The data set can be described thus: Cell anti-proliferation assay (MTT), JEKO-1. The format is cell-based. Conditions: Homo sapiens, 120 h, JEKO-1 cells, incubated for 5 days. In short, it runs like this:
(§1)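 Cells in DMEM with 10% FBS were seeded at 50,000 cells/mL and grown overnight at 37 °C, 5% CO2, then treated at 9 concentrations (3-fold serial dilution, 0.1% DMSO medium). MTT was added for 3 h, formazan dissolved in acidified isopropanol/NP-40, and absorbance read at 570 nm.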

In data set [2] the test system is Human breast cancer cells MCF-7. The data set can be described thus: Cell anti-proliferation assay (MTT), MCF-7. The format is cell-based. The following applies: Homo sapiens, MCF7, 120 h, MCF-7 cells, incubated for 5 days. In short, it runs like this:
as §1

Data set [3] can be described thus: Preclinical pharmacokinetic study in rats. The format is in vivo, Sprague-Dawley (SD) rats. The following applies: male SD rats, oral gavage (p.o.) 10 mg/kg, plasma; for AUC(0-t) / Cmax / Tmax: Sprague-Dawley, rat. The gist of the method:
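Male SD rats (6-8 weeks, 200-300 g), fasted overnight, given 10 mg/kg by oral gavage as 1 mg/mL solution in 5% DMSO/10% solutol HS-15/85% saline. Tail-vein plasma sampled up to 24 h, parent drug quantified by LC-MS/MS; parameters from non-compartmental analysis.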

Data set [4] relates to human ovarian cancer cells A2780. The data set can be described thus: Cell anti-proliferation assay (MTT), A2780. The format is cell-based. Conditions: Homo sapiens, 120 h, incubated for 5 days. The gist of the method: as §1

CDK4/CycD1, sequence (P11802 whole entry): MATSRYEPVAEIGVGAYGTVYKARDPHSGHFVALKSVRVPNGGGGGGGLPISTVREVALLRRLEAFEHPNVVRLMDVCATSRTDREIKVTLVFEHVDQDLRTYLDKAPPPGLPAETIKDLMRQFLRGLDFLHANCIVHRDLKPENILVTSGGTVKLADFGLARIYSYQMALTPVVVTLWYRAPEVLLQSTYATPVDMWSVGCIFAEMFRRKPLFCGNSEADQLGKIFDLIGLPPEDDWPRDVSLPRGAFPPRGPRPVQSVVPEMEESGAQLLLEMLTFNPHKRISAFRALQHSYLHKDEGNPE
T1 sequence (Q00534 whole entry): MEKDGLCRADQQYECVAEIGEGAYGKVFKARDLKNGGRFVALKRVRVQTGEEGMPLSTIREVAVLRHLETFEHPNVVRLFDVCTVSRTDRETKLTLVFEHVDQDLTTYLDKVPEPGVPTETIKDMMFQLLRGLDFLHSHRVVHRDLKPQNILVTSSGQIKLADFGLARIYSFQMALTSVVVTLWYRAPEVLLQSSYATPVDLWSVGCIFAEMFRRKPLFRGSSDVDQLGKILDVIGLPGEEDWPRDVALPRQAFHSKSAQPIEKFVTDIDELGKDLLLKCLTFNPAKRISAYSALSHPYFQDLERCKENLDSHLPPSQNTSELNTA
T1 sequence (P30281 whole entry partner): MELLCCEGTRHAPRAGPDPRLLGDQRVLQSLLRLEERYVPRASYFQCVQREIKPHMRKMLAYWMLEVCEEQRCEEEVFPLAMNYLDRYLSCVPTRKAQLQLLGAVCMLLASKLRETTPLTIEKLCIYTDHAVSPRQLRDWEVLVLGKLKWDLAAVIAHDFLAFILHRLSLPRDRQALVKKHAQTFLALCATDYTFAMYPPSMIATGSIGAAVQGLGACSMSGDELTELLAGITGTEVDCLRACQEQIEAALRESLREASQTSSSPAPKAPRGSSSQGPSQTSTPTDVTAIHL

With `C[C@H]1CCN(C)c2nc3c(F)cc(-c4nc(Nc5ccncc5)ncc4Cl)cc3n21` [TB-137, (S)-5-chloro-4-(9-fluoro-1,4-dimethyl-1,2,3,4-tetrahydrobenzo[4,5]imidazo[1,2-a]pyrimidin-7-yl)-N-(pyridin-4-yl)pyrimidin-2-amine], the IC50 – broadly, the concentration that inhibits the measured activity by half – was 28.3 nM on CDK4/CycD1; 175 nM on CDK6/CyclinD3; at most 500 nM in data set [1]; at most 500 nM in data set [2]; at most 500 nM in data set [4]. For the same molecule, in data set [3], the AUC(0-t) (commonly the area under the concentration-time curve up to a stated or last time point) is 3670 ng·h/mL. In addition, the highest level in data set [3] (Cmax) was 1240 ng/mL. For the same molecule, the time of peak concentration (Tmax) – broadly, the time from dosing to the highest level – in data set [3] was 49.8 min. In data set [3], the “HL_” value was 4.10 h.

Turning to `C[C@H]1CCN(C)c2nc3c(F)cc(-c4cc(N[C@@H]5CCOC[C@H]5O)ncc4Cl)cc3n21` [TB-149], the IC50 on CDK4/CycD1 is 5.3 nM; on CDK6/CyclinD3 it was 90.8 nM; in data set [1], at most 500 nM; in data set [2], at most 500 nM; in data set [4], at most 500 nM. Also, the exposure AUC(0-t) in data set [3] came out at 25400 ng·h/mL. The concentration in data set [3] peaked (Cmax) at 4160 ng/mL. The Tmax in data set [3] was found to be 70.2 min. Besides, in data set [3], the “HL_” value came to 1.99 h.

On to `C[C@H]1CCN(CC#N)c2nc3c(F)cc(-c4nc(N[C@@H]5CCOC[C@H]5O)ncc4Cl)cc3n21` [TC-2], for which the IC50 is 4.5 nM against CDK4/CycD1; 75.7 nM on CDK6/CyclinD3; at most 500 nM in data set [1]; 500 to 2000 nM in data set [2]; at most 500 nM in data set [4]. Also, the AUC(0-t) in data set [3] is 1240 ng·h/mL. For the same molecule, in data set [3], the peak level (Cmax) was 400 ng/mL. Also, the Tmax in data set [3] amounted to 40.2 min. The “HL_” value in data set [3] is given as 2.87 h.

For `C[C@H]1CCN(c2ccccc2F)c2nc3c(F)cc(-c4nc(N[C@@H]5CCOC[C@H]5O)ncc4Cl)cc3n21` [TC-12], the 50% inhibitory concentration (IC50) against CDK4/CycD1 is 1.9 nM; against CDK6/CyclinD3, 45.7 nM; in data set [1], at most 500 nM; in data set [2] it was at most 500 nM; in data set [4], at most 500 nM. In data set [3], the AUC(0-t) stood at 1290 ng·h/mL. Further, the peak concentration (Cmax) (commonly the peak of the concentration-time curve) in data set [3] was determined as 417 ng/mL. Further, in data set [3], the time to peak (Tmax) was 60 min. Besides, the “HL_” value in data set [3] was determined as 2.55 h.
